Data reported in publication PMC5617480 (Oncotarget, 2017).
Read-outs that look alike come from different tables or passages of the source.

Experiments:
[1] = test system: TRF1, mutp53, hTERT, TRF2, c-myc, and 53BP1; test: Western blot in BEL-7404 xenograft models; type: in vivo, BALB/c nude mice; conditions: 8 mg/kg and 4 mg/kg
Description: (E–H) In vivo tumor growth inhibition activity of complex 6 (4.0, 8.0 mg/kg/d) treated of BEL-7402 model with 4.0 and 8.0 mg/kg/d, comparing with cisplatin (2 mg/kg/2 days). (A) and (E). Changes in tumor volume between treatment groups (including complex 6 (4.0, 8.0 mg/kg/d), 5-FU (20 mg/kg/2 days) or cisplatin (2 mg/kg/2 days)) and vehicle (saline) group of BEL-7404 tumor-bearing mice and BEL-7402 tumor-bearing mice. Data of tumor growth were tracked by the mean tumor volume (mm^3) ± SD (n = 6) and calculated as percent TGI (tumor growth inhibition, %) values. (B and F) Relative body weight change by considering the body weight at the start of the treated group as 100%, the percent weight loss or gain was calculated on subsequent days of treatment. (C) and (G) Tumor weight between treatment groups and vehicle (saline) group of BEL-7404 tumor-bearing mice and BEL-7402 tumor-bearing mice. […] (I) The expression protein level of TRF1, mutp53, hTERT, TRF2, c-myc, and 53BP1 were analyzed by western blot in BEL-7404 xenograft models treated with 8 mg/kg and 4 mg/kg complex 6, and 20 mg/kg 5-FU, respectively. (J) The whole-BEL-7404 xenograft model extracts were prepared and analyzed by Western blot analysis using antibodies against TRF1, mutp53, hTERT, TRF2, c-myc, and 53BP1. […] Western blotting bands from three independent measurements were quantified with Image J. in (I). […]

BEL-7404 xenograft = conditions: for Body weight (start) / Tumor volume (start) / Average tumor weight (mean ± SD g) / Body weight (end) / RBW (%) (end) / Tumor volume (end): BEL-7404 model; for Average tumor weight (mean ± SD g) / Body weight (end) / RBW (%) (end) / Tumor volume (end): day 18
Description: In vivo anticancer efficacy of chiral platinum(II) complex 6 was evaluated using BEL-7404 and BEL-7402 xenograft mouse models. BEL-7404 and BEL-7402 cells were injected into nude mice. The mice were randomized into the control group, complex 6-treated group, and the positive control group (n = 6/group). When the volume of tumor was about 80 mm^3, complex 6 was given at a high (8 mg/kg) and low (4 mg/kg) dosage daily for 18 days, 5-FU (20 mg/kg every two days) and Cisplatin (2 mg/kg every two days) were used as a positive control in the BEL-7404 and BEL-7402 xenograft model, respectively.
To evaluate the vivo anticancer efficacy of complex 6, BEL-7404 and BEL-7402 xenograft mouse models (BALB/c nude mice, female for BEL-7404 model, 17–20 g, 6–7 weeks old; male for BEL-7402 model, 18-21 g, 6–7 weeks old) were used. Furthermore, animal used, maximum tolerated dose (MTD) analysis, acute toxicity studies and antitumor activity toward BEL-7404 and BEL-7402 models in vivo of complex 6, was similar to Chen reported.
H21T (3.5 pmol; 5’-G [T AG ] -3’), primer TS (18 pmol; tumor tissue were cut into about 1.5 mm3 small pieces, and […]
5’-[…]-3’), KCl (63 mM), then transplanted into the right flank of nude mice. When EGTA (1 mM), MgCl (1.5 mM), Tween-20 (0.005%), the average tumors reach a volume of about 80 mm3, the […]
primer NT (7.5 pmol; 5’-[…]-3’), mice were randomized into 4 groups (n=6), received the […]
TSNT internal control (0.01 amol; 5’-[…] following treatments: (a) control, received saline solvent; […]
-3’), primer (b) complex 6 at doses of 8.0 mg/kg daily (dissolve in […]
Cxext (22.5 pmol; 5’-[…] saline, iv); (c) complex 6 at doses of 4.0 mg/kg daily; […]
[…]-3’), Taq DNA polymerase (2.5 U), and (d) in BEL-7404 model, 5-fluorouracil (5-Fu) as positive telomerase (100 ng). Complexes or/and distilled water control at 20 mg/kg per two days (dissolve in saline, iv); was added ([…]). PCR was performed in an Eppendorf in BEL-7402 model, cisplatin as positive control at 2 mg/ Master cycler equipped with a hot lid and incubated for kg per two days (dissolve in saline, iv).
30.0 min at 30 °C, followed by 92 °C 30 s, 52 °C 30 s, The tumor volumes and body weight was monitored and 72°C 30 s for 30.0 cycles. After amplification, 8.0 every 3 days, The tumor volumes were estimated by […] loading buffer (5×TBE buffer, 0.2% xylene cyanol, measuring the two dimensions of the tumors using caliper and 0.2% bromophenol blue ) were added to the reaction. and calculated by the formula 1 [1, 6, 14]:
An […] of aliquot was loaded onto a nondenaturing V = (length × width2)/2(1) acrylamide gel (19:1, 16%) in 1×TBE buffer and resolved at 200.0 V for 1.0 h. Gels were fixed and then stained with On day 18, the mice were sacrificed, and tumor AgNO3 [8–11]. tissue were dissected out and weighted, tumor growth inhibition rate calculated using formulas 2 and 3 [1, 6,
In order to verify whether complexes 4–6 can TGI (%) = (ΔVc − ΔVt)/ΔVc×100%(2) directly regulate c-myc promoter (Pu27) and the IR(%) = (Wc − Wt)/Wc×100%(3) expression of hTRET in BEL-7404 cells, consequently Where ΔVt = tumor volumefinal −tumor volumeinitial inhibiting the telomerase function, we constructed EGFP for compound treated group, ΔVc=tumor volumefinal − and c-myc gene vectors according to those illustrated tumor volumeinitial for vehicle control group; Wt and Wc in Chalfie, Chen and He previous work. The detailed mean the average tumor weight of complex-treated and procedures for the construct of gene (c-myc and EGFP vehicle controlled group respectively. genes) vectors, and the method of transfection assays REFERENCES have been reported by Chalfie, Chen and He [1, 6, 9, 12,

cis-[PtCl2(S-(–)-FOA)] [complex 6]
expression of mutp53, c-myc, and hTERT [1]: down-regulated
protein expression of TRF1, TRF2, and 53BP1 [1]: significantly up-regulated
discomfort / side effects in diet intake or overall body weight (BEL-7404 xenograft; BEL-7404 and BEL-7402 models, 4 and 8 mg/kg daily): did not display any discomfort or discernible side effects
Body weight (start) (BEL-7404 xenograft; 6 4.0 mg/kg daily iv): 19.5 ± 1.6 g
Tumor volume (start) (BEL-7404 xenograft; 6 4.0 mg/kg daily iv): 75.81±19.95 mm3
Average tumor weight (mean ± SD g) (BEL-7404 xenograft; 6 4.0 mg/kg daily iv): 0.67 ± 0.08 g
Body weight (end) (BEL-7404 xenograft; 6 4.0 mg/kg daily iv): 17.2 ± 1.7 g
RBW (%) (end) (BEL-7404 xenograft; 6 4.0 mg/kg daily iv): 87.9±4.2%
Tumor volume (end) (BEL-7404 xenograft; 6 4.0 mg/kg daily iv): 782.94±73.43 mm3
Body weight (start) (BEL-7404 xenograft; 6 8.0 mg/kg daily iv): 19.5 ± 1.2 g
Tumor volume (start) (BEL-7404 xenograft; 6 8.0 mg/kg daily iv): 73.70±16.66 mm3
Average tumor weight (mean ± SD g) (BEL-7404 xenograft; 6 8.0 mg/kg daily iv): 0.51 ± 0.19 g
Body weight (end) (BEL-7404 xenograft; 6 8.0 mg/kg daily iv): 17.4 ± 0.8 g
RBW (%) (end) (BEL-7404 xenograft; 6 8.0 mg/kg daily iv): 89.2±2.5%
Tumor volume (end) (BEL-7404 xenograft; 6 8.0 mg/kg daily iv): 659.96±253.88 mm3
